# Measurements from PMC3083654, “Cytotoxic and Antimicrobial Activity of Pseudopterosins and seco-Pseudopterosins Isolated from the Octocoral Pseudopterogorgia elisabethae of San Andrés and Providencia Islands (Southwest Caribbean Sea)” (Marine Drugs, 2011).
# Read-outs that look alike come from different tables or passages of the source.
# What was measured:
# [1] = tested on: HeLa (cervical cancer); experiment: MTT cytotoxic assay, HeLa; type: cell-based; conditions: Homo sapiens, 48 h
# Experimental: (§1) The cell lines HeLa (cervical cancer), PC-3 (prostate cancer), HCT116 (colorectal cancer), MCF-7 (breast cancer) and normal human cell line BJ (skin fibroblasts) were used and maintained in DMEM with 5% of FBS and gentamicin 50 μg/mL. Cultures were held in 75 cm^2 culture flasks at 37 °C, 5% CO2 and 100% relative humidity, changing media at least twice a week.
# (§2) Cells were harvested, counted, and transferred into 96 well plates and incubated for 24 h prior to the addition of the test compounds. Test sample solutions (10 μL) at the desired dilutions were added to the wells containing the cells and incubated for 48 h. Microtitration colorimetric method of MTT reduction was used to determine surviving cells at the end of the treatment period.
# (§3) A solution of MTT (0.5 mg/mL) was prepared in PBS and 100 μL of this solution was added to each well after the removal of 100 μL of treatment solution. The plates were incubated at 37 °C for 4 h. The solution in each well, containing media, unmetabolized MTT, and dead cells, was removed by suction and 100 μL of DMSO was added to each well. The DMSO was mixed by pipetting and optical density was recorded using a BioTek Synergy HT microplate reader to measure the absorbance at 570 nm. Percentages of cell survival relative to vehicle control wells (wells containing only cells and DMSO) were calculated.
# (§4) Stock solutions (5 mg/mL) were prepared by dissolving pure compounds in DMSO and storing at 4 °C. Serial dilutions with culture media were prepared just prior to addition to test plates. The concentration of DMSO in wells was consistent across dilutions at 0.38% v/v. Staurosporine was used as the positive control and vehicle (DMSO + media) as blank. Control and test compounds (PsG, PsP, PsQ, PsS, PsT, PsU, 3-O-Ac-PsU, seco-PsJ, seco-PsK and IMNGD) were assayed in duplicate for each concentration and replicated for each cell line at concentrations of 5000, 1000, 500, 100, 50, 10, 5 and 1 nM for staurosporine and 0.1, 0.5, 1.0, 2.5, 5.0, 7.5, 10.0, and 20.0 μg/mL for compounds.
# (§5) Data were normalized and analyzed using non-linear regression to elucidate IC50 values from sigmoidal dose-response curves. Comparison between cell lines and microorganisms used extra sum-of-squares F test to evaluate IC50 between data sets. P < 0.05 was considered as indicative of significance using GraphPad Software, Prism V. 5.0.
# [2] = tested on: PC-3 (prostate cancer); experiment: MTT cytotoxic assay, PC-3; type: cell-based; conditions: Homo sapiens, PC-3, 48 h
# Experimental: as §1, §2, §3, §4, §5
# [3] = tested on: HCT116 (colorectal cancer); experiment: MTT cytotoxic assay, HCT116; type: cell-based; conditions: Homo sapiens, HCT-116, HCT116, 48 h
# Experimental: as §1, §2, §3, §4, §5
# [4] = tested on: MCF-7 (breast cancer); experiment: MTT cytotoxic assay, MCF-7; type: cell-based; conditions: Homo sapiens, MCF7, 48 h
# Experimental: as §1, §2, §3, §4, §5
# [5] = tested on: BJ (skin fibroblasts); experiment: MTT cytotoxic assay, normal BJ cells; type: cell-based, human; conditions: 48 h
# Experimental: as §1, §2, §3, §4, §5
# [6] = tested on: Staphylococcus aureus ATCC 375; experiment: Antimicrobial microdilution assay, S. aureus; type: cell-based; conditions: ATCC375, 24 h
# Experimental: (§6) Compounds isolated from P. elisabethae were tested against a panel of microorganisms including the bacteria Staphylococcus aureus ATCC 375, Enterococcus faecalis ATCC 10741, Pseudomonas aeruginosa ATCC 14210 and the yeast Candida albicans ATCC 14035. Bacterial strains were cultured in Luria-Bertani Broth (LB) and C. albicans was cultured in Sabouraud dextrose broth (SD), for 18 h at 37 °C and 220 rpm in a humidified incubator.
# (§7) The antimicrobial activity was determined by a microdilution method (IC50) in 96-well microtiter plates using LB media for bacteria and SD media for the yeast seeded liquid media. In all cases, a pre-inoculated dilution was made with fresh broth. A volume of 180 μL of each microorganism suspension was inoculated in each well (10^5 cells/mL) and mixed with 20 μL of treatment solutions. Stock solutions were prepared by dissolving pure compounds and controls in 20% DMSO and storing at 4 °C. Penicillin G (S. aureus), vancomycin (E. faecalis), gentamicin (P. aeruginosa) and nystatin (C. albicans) were used as positive controls and vehicle (DMSO + media) as blank. The final DMSO concentration used for dissolving the extracts was less than 20%. Controls and test compounds (PsG, PsP, PsQ, PsS, PsT, PsU, 3-O-Ac-PsU, seco-PsJ, seco-PsK and IMNGD) were assayed in duplicate for each of the following concentrations: 64.0, 32.0, 16.0, 4.0, 1.0, 0.25 and 0.06 μg/mL.
# (§8) Microplates were incubated for 24 h at 37 °C and optical density was recorded using a BioTek Synergy HT microplate reader to measure the absorbance at 600 nm. For each experiment, correction for background absorbance was made by subtracting the value for OD600 after the compounds were added (time 0 h). Percentages of microorganism survival relative to vehicle control wells (wells containing only microorganism and DMSO) were calculated. The IC50 of the controls were also determined in parallel experiments in order to control for the sensitivity of the standard test organisms.
# as §5
# [7] = tested on: Enterococcus faecalis ATCC 10741; experiment: Antimicrobial microdilution assay, E. faecalis; type: cell-based
# Experimental: as §6, §7, §8, §5
# [8] = Enterococcus faecalis, ATCC10741, E. faecalis, microdilution, 24 h, read-out: IC50 ± S.E
SMILES,IC50 [6] [µM],"IC50 [7, 8] [µM]",GI50 [1] [µM],GI50 [2] [µM],GI50 [3] [µM],GI50 [4] [µM],GI50 [5] [µM],GI50 ([5]; listed as 3-O-acetyl-PsU) [µM],"GI50 ([5]; Homo sapiens, Skin fibroblast) [µM]",GI50 ([1]; footnote ** unit) [µM],GI50 ([2]; footnote ** unit) [µM],GI50 ([3]; footnote ** unit) [µM],GI50 ([4]; footnote ** unit) [µM],"GI50 ([5]; Homo sapiens, Skin fibroblast, footnote ** unit) [µM]","IC50 ([7]; Enterococcus faecalis, ATCC10741, 24 h, read-out: IC50 ± S.E, E. faecalis, microdilution, 24 h) [µM]","IC50 ([7]; read-out: IC50 ± S.E, E. faecalis, microdilution, 24 h) [µM]"
CC(=O)OC1COC(Oc2c(C)c3c4c(c2O)C(C)CCC4C(C)CC3C=C(C)C)C(O)C1OC(C)=O (centres unmarked) [3-O-Ac-PsU],20.23 ± 0.19,7.64 ± 0.16,44.61 ± 0.35,26.4 ± 0.31,20.5 ± 0.48,83.93 ± 0.39,62.03 ± 0.45,> 10,,,,,,,,
"CC1(C)S[C@@H]2[C@H](NC(=O)Cc3ccccc3)C(=O)N2[C@H]1C(=O)O [Penicillin G, penicillin G, reference compound]",1.61 ± 0.08,,,,,,,,,,,,,,,
CC(C)=C[C@@H]1C[C@H](C)[C@H]2CC[C@H](C)c3c(O[C@@H]4O[C@@H](C)[C@@H](O)[C@@H](O)[C@@H]4O)c(O)c(C)c1c32 [PsG],4.48 ± 0.18,3.14 ± 0.22,9.22 ± 0.45,8.83 ± 0.54,12 ± 0.36,9.42 ± 0.43,,,7.62 ± 0.38,,,,,,,
CC(C)=C[C@@H]1C[C@H](C)[C@H]2CC[C@H](C)c3c(O)c(O[C@@H]4O[C@@H](C)[C@@H](O)[C@@H](O)[C@@H]4O)c(C)c1c32 [PsP],14.9 ± 0.2,37.35 ± 0.29,10.3 ± 0.49,13.8 ± 0.58,17.9 ± 0.45,12.6 ± 0.45,10.4 ± 0.42,,> 10,,,,,,,
CC(C)=C[C@@H]1C[C@H](C)[C@H]2CC[C@H](C)c3c(O)c(O[C@@H]4OC[C@@H](O)[C@@H](O)[C@@H]4O)c(C)c1c32 [PsT],5.39 ± 0.25,4.38 ± 0.16,14.6 ± 0.35,22 ± 0.46,24.2 ± 0.42,14.7 ± 0.46,12.9 ± 0.37,,> 10,,,,,,,
CC(=O)OC1COC(Oc2c(C)c3c4c(c2O)C(C)CCC4C(C)CC3C=C(C)C)C(O)C1O (centres unmarked) [PsU],2.97 ± 0.17,3.19 ± 0.25,15.6 ± 0.32,24.8 ± 0.34,23.4 ± 0.4,26.5 ± 0.46,,,9.35 ± 0.34,,,,,,,
"CN[C@@H]1C[C@H]2O[C@@](C)([C@@H]1OC)n1c3ccccc3c3c4c(c5c6ccccc6n2c5c31)C(=O)NC4 [Staurosporine, staurosporine, reference compound]",,,,,,,,,,0.1056 ± 0.00041,0.06182 ± 0.00038,0.04556 ± 0.00045,0.1766 ± 0.00038,0.0136 ± 0.00035,,
"CN[C@H](CC(C)C)C(=O)N[C@H]1C(=O)N[C@@H](CC(N)=O)C(=O)N[C@H]2C(=O)N[C@H]3C(=O)N[C@H](C(=O)N[C@H](C(=O)O)c4cc(O)cc(O)c4-c4cc3ccc4O)[C@H](O)c3ccc(c(Cl)c3)Oc3cc2cc(c3O[C@@H]2O[C@H](CO)[C@@H](O)[C@H](O)[C@H]2O[C@H]2C[C@](C)(N)[C@H](O)[C@H](C)O2)Oc2ccc(cc2Cl)[C@H]1O [Vancomycin, vancomycin, reference compound]",,,,,,,,,,,,,,,4.2,4.21 ± 0.11

# The next lines start with results.
IC50 [6] [µM],"IC50 [7, 8] [µM]",SMILES,GI50 [1] [µM],GI50 [2] [µM],GI50 [3] [µM],GI50 [4] [µM],GI50 [5] [µM],GI50 ([5]; listed as 3-O-acetyl-PsU) [µM],"GI50 ([5]; Homo sapiens, Skin fibroblast) [µM]",GI50 ([1]; footnote ** unit) [µM],GI50 ([2]; footnote ** unit) [µM],GI50 ([3]; footnote ** unit) [µM],GI50 ([4]; footnote ** unit) [µM],"GI50 ([5]; Homo sapiens, Skin fibroblast, footnote ** unit) [µM]","IC50 ([7]; Enterococcus faecalis, ATCC10741, 24 h, read-out: IC50 ± S.E, E. faecalis, microdilution, 24 h) [µM]","IC50 ([7]; read-out: IC50 ± S.E, E. faecalis, microdilution, 24 h) [µM]"
3.3 ± 0.2,7.38 ± 0.16,CC(=O)O[C@H]1[C@@H](O)[C@H](O)[C@H](Oc2c(C)c3c4c(c2O)[C@@H](C)CC[C@@H]4[C@@H](C)C[C@H]3C=C(C)C)O[C@H]1C [PsQ],5.82 ± 0.33,7.81 ± 0.35,7.66 ± 0.27,8.44 ± 0.41,,,4.47 ± 0.31,,,,,,,
3.89 ± 0.23,20.2 ± 0.25,CC(=O)O[C@@H]1[C@H](Oc2c(C)c3c4c(c2O)[C@@H](C)CC[C@@H]4[C@@H](C)C[C@H]3C=C(C)C)O[C@@H](C)[C@@H](O)[C@H]1O [PsS],13.8 ± 0.39,52.05 ± 0.31,33.5 ± 0.33,26.2 ± 0.45,,,,,,,,,,
6.52 ± 0.12,4.08 ± 0.19,CC(C)=CCC[C@H](C)[C@H]1CC[C@H](C)c2c1cc(C)c(O[C@@H]1OC[C@@H](O)[C@@H](O)[C@@H]1O)c2O [seco-PsJ],21.1 ± 0.37,37.2 ± 0.41,31.7 ± 0.32,28 ± 0.51,15 ± 0.35,,> 10,,,,,,,
4.2 ± 0.16,3.82 ± 0.21,CC(C)=CCC[C@H](C)[C@H]1CC[C@H](C)c2c1cc(C)c(O[C@@H]1O[C@@H](C)[C@@H](O)[C@@H](O)[C@@H]1O)c2O [seco-PsK],15.8 ± 0.18,13.6 ± 0.38,13.3 ± 0.27,11.5 ± 0.36,,,8.28 ± 0.29,,,,,,,
